Assay results from patent publication US4749717A, “Dopamine-beta-hydroxylase inhibitors” (SmithKline Beckman Corporation, priority 1987, dated 1988).

Columns and labels:
[1] = molecular target: T1, DBH (dopamine-β-hydroxylase) (Homo sapiens, UniProt P09172); conditions: literature; cited from earlier work
T1 sequence (P09172 1-617): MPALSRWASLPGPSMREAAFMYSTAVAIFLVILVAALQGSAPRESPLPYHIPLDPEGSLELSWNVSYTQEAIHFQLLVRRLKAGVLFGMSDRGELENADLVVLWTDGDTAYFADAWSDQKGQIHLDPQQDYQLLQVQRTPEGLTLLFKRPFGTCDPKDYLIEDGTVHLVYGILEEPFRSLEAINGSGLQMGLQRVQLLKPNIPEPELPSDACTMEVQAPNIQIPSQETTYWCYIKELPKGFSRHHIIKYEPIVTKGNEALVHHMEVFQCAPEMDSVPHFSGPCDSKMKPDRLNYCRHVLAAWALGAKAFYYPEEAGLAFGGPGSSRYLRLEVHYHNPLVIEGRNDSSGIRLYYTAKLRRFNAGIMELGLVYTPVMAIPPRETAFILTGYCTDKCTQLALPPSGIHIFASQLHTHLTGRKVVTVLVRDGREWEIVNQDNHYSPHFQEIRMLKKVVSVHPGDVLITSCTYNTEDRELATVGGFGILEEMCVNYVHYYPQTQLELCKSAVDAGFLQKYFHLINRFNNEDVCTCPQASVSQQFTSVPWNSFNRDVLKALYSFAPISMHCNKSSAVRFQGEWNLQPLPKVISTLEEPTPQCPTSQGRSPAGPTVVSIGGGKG

[2] = Ehrreich et al.; cited from earlier work
[3] = molecular target: T2, DBH (dopamine-β-hydroxylase) (Bos taurus, UniProt P15101); experiment: in vitro DBH inhibition (conversion of tyramine to octopamine; spectrophotometric absorbance at 330 nm); type: biochemical; conditions: concentration of compound at which DBH activity was halved
T2 sequence (P15101 1-610): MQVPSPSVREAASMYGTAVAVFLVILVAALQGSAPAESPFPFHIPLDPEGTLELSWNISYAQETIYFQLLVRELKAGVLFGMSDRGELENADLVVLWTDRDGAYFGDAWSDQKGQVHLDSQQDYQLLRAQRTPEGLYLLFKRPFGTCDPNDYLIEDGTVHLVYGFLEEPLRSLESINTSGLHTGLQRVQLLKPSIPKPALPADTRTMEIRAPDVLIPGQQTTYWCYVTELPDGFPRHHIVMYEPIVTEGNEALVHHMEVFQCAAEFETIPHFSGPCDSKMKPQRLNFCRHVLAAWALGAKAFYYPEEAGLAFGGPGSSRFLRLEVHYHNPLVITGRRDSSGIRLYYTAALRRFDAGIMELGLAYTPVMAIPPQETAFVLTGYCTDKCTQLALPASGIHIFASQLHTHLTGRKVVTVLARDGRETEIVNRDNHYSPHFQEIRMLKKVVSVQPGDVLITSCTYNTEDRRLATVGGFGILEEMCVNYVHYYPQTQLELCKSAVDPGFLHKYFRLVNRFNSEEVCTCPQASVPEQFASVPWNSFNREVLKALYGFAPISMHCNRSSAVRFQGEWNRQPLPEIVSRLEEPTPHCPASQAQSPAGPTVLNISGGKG
Procedure: Listed in Table I are the compounds of the invention that were tested for in vitro DBH inhibition by a standard procedure for assaying conversion of tyramine to octopamine in the presence of DBH. J. J. Pisano, et al., Biochim. Biophys. Acta, 43, 566-568 (1960). Octopamine was assayed following sodium periodate oxidation to p-hydroxybenzaldehyde by measuring spectrophotometric absorbance at 330 nm.

[4] = system: spontaneously hypertensive rats; experiment: mean arterial blood pressure in spontaneously hypertensive rats; type: in vivo, rat; conditions: 50 mg/kg intraperitoneally
Procedure: Further, spontaneously hypertensive rats were treated with a suspension or solution of 1-(2-thienylmethyl)imidazole-2-thiol at a dose of 50 mg/kg intraperitoneally, and mean arterial blood pressure was monitored for 260 minutes using indwelling cannulae in the tail arteries. […] The maximal blood pressure reduction was approximately 25 to 30 mmHg.

[5] = Teresawa et al.; cited from earlier work

| SMILES | DBH inhibition (in words) [1] | also measured |
| --- | --- | --- |
| CCCCc1ccc(C(N)=O)nc1 [Bupicomide, 5-(n-butyl)picolinamine] | DBH inhibitor | antihypertensive activity (in words) [2]: has antihypertensive activity |
| Sc1nccn1Cc1ccsc1 [1-(3-thienylmethyl)imidazole-2-thiol, 1-(3-Thienylmethyl)imidazole-2-thiol] | – | IC50 [3]: 7.4 µM |
| NOCc1ccccc1 [Benzyloxyamine, benzyloxyamine] | apparently act as competitive inhibitors | – |
| NNCc1ccccc1 [benzylhydrazine] | apparently act as competitive inhibitors | – |
| NCC=Cc1cccs1 [3-(2-thienyl)allylamine] | potent, time-dependent DBH inhibitors | – |
| O=C(O)c1ccc(CCCCCl)cn1 [5-(4-chlorobutyl) picolinic acid] | inhibit DBH | – |
| O=C(O)c1ccc(CCC(Br)CBr)cn1 (centres unmarked) [5-(3,4-dibromobutyl)picolinic acid] | DBH inhibitors | – |
| CN(C)C(=S)SCc1ccc(C(=O)O)nc1 [5-(dimethyldithiocarbamoylmethyl)picolinic acid] | DBH inhibitors | – |
| Sc1nccn1Cc1cccs1 [1-(2-thienylmethyl)imidazole-2-thiol, 1-(2-Thienylmethyl)Imidazole-2-Thiol] | – | time after treatment to significant blood pressure reductions [4]: ≤ 60 min; maximal blood pressure reduction ([4]; mean arterial blood pressure, approximately): 25 to 30 mmHg; blood pressure reduction compared to vehicle-treated controls ([4]; monitored for 260 minutes): significant blood pressure reductions; IC50 [3]: 13 µM |
| CCCCc1ccc(C(=O)O)nc1 [fusaric acid] | – | hepatotoxicity (in words) [5]: hepatotoxic |
